pIC50: −log10 of the molar value. Active and inactive are the calls of the source. No cut-off for these calls is given here.
What was measured:
[1] = Toxicity in ICR mouse assessed as lethal dose at ip administration for 14 days; assay type: organism-based; settings: in vivo, time 14 day
[2] = test system: MDA-MB-231; test: Antitumor activity against human MDA-MB-231 cells xenografted in BALB/c mouse assessed as decrease in phosphorylated Rb expression at 20 mg/kg,ip administrated for 21 consecutive days by immunohistochemistry; assay type: functional, organism-based
[3] = molecular target: CDK4/Cyclin D3 (Homo sapiens, UniProt P11802); test: Inhibition of CDK4/CyclinD3 (unknown origin) preincubated for 15 mins followed by substrate and ATP addition incubated for 10 mins by ADP-glo luminescent assay; assay type: protein-complex assay
CDK4/Cyclin D3, sequence (P11802 whole entry): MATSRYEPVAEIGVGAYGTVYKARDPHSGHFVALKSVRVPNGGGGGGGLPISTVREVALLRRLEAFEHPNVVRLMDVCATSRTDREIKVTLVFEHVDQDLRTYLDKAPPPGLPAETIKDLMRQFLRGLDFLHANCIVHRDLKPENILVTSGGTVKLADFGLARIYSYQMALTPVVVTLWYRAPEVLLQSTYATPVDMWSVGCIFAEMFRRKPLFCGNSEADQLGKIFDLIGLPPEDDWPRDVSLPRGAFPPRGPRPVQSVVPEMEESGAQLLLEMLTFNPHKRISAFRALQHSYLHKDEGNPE
CDK4/Cyclin D3, sequence (P30281 whole entry, further chain): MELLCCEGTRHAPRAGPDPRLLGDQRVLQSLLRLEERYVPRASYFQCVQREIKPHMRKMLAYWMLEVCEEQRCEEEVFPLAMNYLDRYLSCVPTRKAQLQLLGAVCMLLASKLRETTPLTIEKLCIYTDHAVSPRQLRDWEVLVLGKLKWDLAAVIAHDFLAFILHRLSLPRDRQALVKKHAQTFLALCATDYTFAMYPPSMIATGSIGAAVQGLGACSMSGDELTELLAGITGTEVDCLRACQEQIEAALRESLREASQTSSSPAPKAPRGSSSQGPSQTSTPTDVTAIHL

[4] = test system: MDA-MB-231; test: Induction of apoptosis in human MDA-MB-231 cells assessed as upregulation of Bax expression at 0.5 to 2 uM incubated for 24 hrs by Western blotting analysis; assay type: functional, cell-based; settings: dose 0.5-2 µM
[5] = test system: HCT-116; test: Induction of ferroptosis in human HCT-116 cells assessed as increase in intracellular ferrous ion level at 0.5 to 2 uM incubated for 24 hrs by ferroOrange probe based confocal laser scanning microscopic analysis; assay type: functional, cell-based; settings: dose 0.5-2 µM
[6] = test system: MDA-MB-231; test: Induction of apoptosis in human MDA-MB-231 cells assessed as downregulation of BCL-2 expression at 0.5 to 2 uM incubated for 24 hrs by Western blotting analysis; assay type: functional, cell-based; settings: dose 0.5-2 µM
[7] = Tmax in Sprague-Dawley rat at 10 mg/kg,iv administration measured upto 24 hrs by LC-MS/MS analysis; assay type: ADME, organism-based; settings: in vivo
[8] = Intrinsic clearance in human liver microsomes in presence of NADPH incubated for 5 to 45 mins by LC/MS analysis; assay type: ADME, Microsome; settings: time 5-45 min, read-out: CLH
[9] = Toxicity in BALB/c mouse xenografted with human MDA-MB-231 cells assessed as change in body weight at 20 mg/kg,ip administrated for 21 consecutive days; assay type: organism-based; settings: in vivo
[10] = test system: MDA-MB-231; test: Induction of cell cycle arrest in human MDA-MB-231 cells assessed as downregulation of E2F1 expression at 0.5 to 2 uM incubated for 24 hrs by Western blotting analysis; assay type: functional, cell-based; settings: dose 0.5-2 µM
[11] = test system: HCT-116; test: Induction of ferroptosis in human HCT-116 cells assessed as increase in intracellular ferrous ion level at 0.5 to 2 uM incubated for 24 hrs by ferroOrange probe based flow cytometric analysis; assay type: functional, cell-based; settings: dose 0.5-2 µM
[12] = molecular target: CDK6/cyclin D3 (Homo sapiens, UniProt Q00534); test: Inhibition of CDK6/CyclinD3 (unknown origin) preincubated for 15 mins followed by substrate and ATP addition incubated for 10 mins by ADP-glo luminescent assay; assay type: protein-complex assay
CDK6/cyclin D3, sequence (P30281 whole entry): as the sequence (P30281 whole entry, further chain) above
CDK6/cyclin D3, sequence (Q00534 whole entry): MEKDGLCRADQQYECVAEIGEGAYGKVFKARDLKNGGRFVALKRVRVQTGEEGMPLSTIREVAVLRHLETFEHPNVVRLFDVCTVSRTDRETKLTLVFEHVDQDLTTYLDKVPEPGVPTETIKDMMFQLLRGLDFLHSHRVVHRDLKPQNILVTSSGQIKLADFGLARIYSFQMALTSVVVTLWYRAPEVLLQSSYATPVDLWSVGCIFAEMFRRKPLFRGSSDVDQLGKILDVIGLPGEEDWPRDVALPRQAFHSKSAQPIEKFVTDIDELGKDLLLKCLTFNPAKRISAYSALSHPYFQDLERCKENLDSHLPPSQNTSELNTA

[13] = test system: MDA-MB-231; test: Antitumor activity against human MDA-MB-231 cells xenografted in BALB/c mouse assessed as decrease in GPX4 expression at 40 mg/kg,ip administrated for 21 consecutive days by immunohistochemistry; assay type: functional, organism-based
[14] = test system: HCT-116; test: Induction of apoptosis in human HCT-116 cells incubated for 24 hrs by annexin-V-FITC/PI staining based flow cytometric analysis; assay type: functional, cell-based
[15] = Toxicity in BALB/c mouse xenografted with human MDA-MB-231 cells assessed as morphological change in spleen at 20 mg/kg,ip administrated for 21 consecutive days by hematoxylin and eosin staining based analysis; assay type: organism-based; settings: in vivo
[16] = test system: MDA-MB-231; test: Induction of cell cycle arrest in human MDA-MB-231 cells assessed as downregulation of phoshorylated Rb at 0.5 to 2 uM incubated for 24 hrs by Western blotting analysis; assay type: functional, cell-based; settings: dose 0.5-2 µM
[17] = test system: MDA-MB-231; test: Antitumor activity against human MDA-MB-231 cells xenografted in BALB/c mouse assessed as decrease in GPX4 expression at 20 mg/kg,ip administrated for 21 consecutive days by immunohistochemistry; assay type: functional, organism-based
[18] = test system: MDA-MB-231; test: cells; settings: Homo sapiens, MDA-MB-231, 48 h
Description: Antiproliferative activity against human MDA-MB-231 cells assessed as inhibition of cell growth incubated for 48 hrs by CCK-8 assay

[19] = test system: MDA-MB-231; test: Induction of ferroptosis in human MDA-MB-231 cells assessed as increase in intracellular lipid peroxide level incubated for 24 hrs by flow cytometric analysis; assay type: functional, cell-based
[20] = test system: HCT-116; test: cells; settings: Homo sapiens, HCT-116, 48 h
Description: Antiproliferative activity against human HCT-116 cells assessed as inhibition of cell growth incubated for 48 hrs by CCK-8 assay

[21] = test system: MDA-MB-231; test: Induction of ferroptosis in human MDA-MB-231 cells assessed as downregulation of GPX4 expression incubated for 24 hrs by Western blotting analysis; assay type: functional, cell-based
[22] = Toxicity in BALB/c mouse xenografted with human MDA-MB-231 cells assessed as change in body weight at 40 mg/kg,ip administrated for 21 consecutive days; assay type: organism-based; settings: in vivo
[23] = test system: HCT-116; test: Induction of ferroptosis in human HCT-116 cells assessed as increase in intracellular lipid peroxide level incubated for 24 hrs by flow cytometric analysis; assay type: functional, cell-based
[24] = Toxicity in BALB/c mouse xenografted with human MDA-MB-231 cells assessed as morphological change in spleen at 40 mg/kg,ip administrated for 21 consecutive days by hematoxylin and eosin staining based analysis; assay type: organism-based; settings: in vivo
[25] = test system: MDA-MB-231; test: Induction of ferroptosis in human MDA-MB-231 cells assessed as increase in intracellular lipid peroxide level incubated for 24 hrs by […] staining based confocal laser scanning microscopic analysis; assay type: functional, cell-based
[26] = molecular target: CDK2/Cyclin A2 (Homo sapiens) (UniProt P24941+P20248); test: Inhibition of CDK2/CyclinA2 (unknown origin) at 100 nM preincubated for 15 mins followed by substrate and ATP addition incubated for 10 mins by ADP-glo luminescent assay relative to control; assay type: protein-complex assay; settings: time 25.0 min
[27] = MRT (0 to t) in Sprague-Dawley rat at 10 mg/kg,iv administration measured upto 24 hrs by LC-MS/MS analysis; assay type: ADME, organism-based; settings: in vivo
[28] = Toxicity in BALB/c mouse xenografted with human MDA-MB-231 cells assessed as morphological change in lung at 40 mg/kg,ip administrated for 21 consecutive days by hematoxylin and eosin staining based analysis; assay type: organism-based; settings: in vivo
[29] = Half life in Sprague-Dawley rat at 10 mg/kg,iv administration measured upto 24 hrs by LC-MS/MS analysis; assay type: ADME, organism-based; settings: in vivo
[30] = test system: HepG2; test: cells; settings: Homo sapiens, HepG2, 48 h
Description: Antiproliferative activity against human HepG2 cells assessed as inhibition of cell growth incubated for 48 hrs by CCK-8 assay

[31] = Clearance in Sprague-Dawley rat at 10 mg/kg,iv administration measured upto 24 hrs by LC-MS/MS analysis; assay type: ADME, organism-based; settings: in vivo
[32] = test system: HCT-116; test: Induction of apoptosis in human HCT-116 cells assessed as downregulation of BCL-2 expression at 0.5 to 2 uM incubated for 24 hrs by Western blotting analysis; assay type: functional, cell-based; settings: dose 0.5-2 µM
[33] = Toxicity in BALB/c mouse xenografted with human MDA-MB-231 cells assessed as morphological change in kidney at 20 mg/kg,ip administrated for 21 consecutive days by hematoxylin and eosin staining based analysis; assay type: organism-based; settings: in vivo
[34] = Cmax in Sprague-Dawley rat at 10 mg/kg,iv administration measured upto 24 hrs by LC-MS/MS analysis; assay type: ADME, organism-based; settings: in vivo
[35] = test system: HCT-116; test: Induction of cell cycle arrest in human HCT-116 cells assessed as downregulation of E2F1 expression at 0.5 to 2 uM incubated for 24 hrs by Western blotting analysis; assay type: functional, cell-based; settings: dose 0.5-2 µM
[36] = test system: HCT-116; test: Induction of ferroptosis in human HCT-116 cells assessed as downregulation of GPX4 expression incubated for 24 hrs by Western blotting analysis; assay type: functional, cell-based
[37] = test system: A549; test: cells; settings: Homo sapiens, A549, 48 h
Description: Antiproliferative activity against human A549 cells assessed as inhibition of cell growth incubated for 48 hrs by CCK-8 assay

With `COc1ccc2c(c1)NC(=O)/C2=C1\Nc2ccccc2\C1=N/OCCCNC(=O)CCn1cc(COc2ccc(N(C(=O)CCl)C(C(=O)NCCc3ccccc3)c3cccs3)cc2Cl)nn1` (configuration not stated) the LD50 at 336 h [1] was 185 mg/kg, the Activity [2] was “Active” and the pIC50 [3] was 6.72. For the same compound, the Activity [4] was “Active”, the Activity [5] was “Active” and the Activity [6] was “Active”. The Tmax [7] was 48 min, the CLint scaled [8] was 27.3 mL/min/kg and the Activity [9] was “Non-Toxic”. The Activity [10] was “Active”, the Activity [11] was “Active” and the pIC50 [12] was 7.17. The Activity [13] was “Active”, the Activity [14] was “Dose-Dependent Effect” and the Activity [15] was “Non-Toxic”. For the same compound, the Activity [16] was “Active”, the Activity [17] was “Active” and the pIC50 [18] was 6.10. The Activity [19] was “Dose-Dependent Effect”, the pIC50 [20] was 6.12 and the Activity [21] was “Dose-Dependent Effect”. The Activity [22] was “Non-Toxic”, the Activity [23] was “Dose-Dependent Effect” and the Activity [24] was “Non-Toxic”. The Activity [25] was “Dose-Dependent Effect”, the inhibition [26] was 10.7% and the MRT last at 24 h [27] was 3.6 h. The Activity [28] was “Non-Toxic”, the half-life [29] was 324 min and the pIC50 [30] was 5.83. For the same compound, the clearance [31] was 10.2 mL/min/kg, the Activity [32] was “Active” and the Activity [33] was “Non-Toxic”. For the same compound, the Cmax [34] was 9230 ng/mL, the Activity [35] was “Active” and the Activity [36] was “Dose-Dependent Effect”. For the same compound, the pIC50 [37] was 5.99.
